Test results as given in patent publication US10435402B2, “Bicyclic compounds, compositions and medicinal applications thereof” (Advinus Therapeutics Limited, priority 2015, dated 2019).

Target: T1, GAL4-DBD/RORγ-LBD (Homo sapiens, UniProt P51449)
T1 construct: expressed in transfected cells; host or cells: HEK293T
Experiment: RORγt transactivation reporter assay (GAL4-DBD/RORγ-LBD, luciferase read out)
Type: cell-based
Details: HEK293T cells, GAL4-UAS luciferase reporter, overnight (18-24 hours) incubation
Description: RORγt Transactivation Reporter Assay Protocol: The inhibition of RORγt activity in cells was evaluated using a GAL4-UAS reporter system in HEK293T cells employing a luciferase read out. RORγt ligand binding domain (LBD) was cloned into the pFN26A (BIND) vector (Promega #[…]) containing yeast GAL4-DBD to form a RORγt LBD-GAL4 DBD fusion construct. This vector also contained a Renilla Luciferase reporter expressed under a SV40 promoter which was used as a control for transfection efficiency. A transcriptional reporter expression construct pGL4.35 (Promega #[…]) was used to monitor RORγt LBD-GAL4 activity. This construct contained nine repeats of GAL4 binding site/upstream activating sequence (UAS) controlling expression of a firefly luciferase reporter Luc2P. When transfected together in cells, the RORγ-LBD-DBD fusion protein drives expression of the luciferase reporter. For the assay, HEK293T cells were plated in a flat bottom 96 well plate at a density of 25,000 cells/well/100 ul of DMEM high glucose medium (Sigma D5648) containing 10% FBS and antibiotic. Cells were incubated overnight at 37 C/5% CO2. The next day, medium from the wells was removed and replaced with 30 ul of OptiMEM® (Invitrogen #31985070). 100 ng each of pBIND RORγ LBD-DBD and pGL4.35 reporter plasmids was transfected in HEK293T cells using Lipofectamine 2000 (Invitrogen #11668-019) where 10 ul of transfection complex was added to the each well. Control transfections were performed with an empty pF[…] vector and pGL4.35 vector. The transfected cells were incubated for 5 hours at 37 C/5% CO2. After incubation, 40 ul of DMEM high glucose medium without FBS, with antibiotic was added to each well. A 10 mM stock solution of test compound prepared in 100% DMSO was first diluted in DMSO and then in DMEM medium without FBS to give the required final compound concentration. Concentration of DMSO in the test compound solution was 0.4%. 20 ul of diluted compound solution was added to each well. Cells were incubated overnight (18-24 hours) at 37 C/5% CO2. The next day, luciferase assay was performed using the Dual Glo® Luciferase Assay System (Promega #E2940). Briefly, medium was removed from the wells and replaced with 40 ul 1× Passive Lysis Buffer (Promega #E1941). Plate was incubated at room temperature on a plate shaker at 1000 rpm for 40 min. After incubation, plate was centrifuged at 1000 rpm for 2 min. 20 ul of the lysate was transferred from each well to that of solid white half area 96 well plate (Costar #3693). Dual Glo® Reagent was thawed to room temperature and 20 ul was added to each well containing lysate. Plate was centrifuged at 1000 rpm/2 min and incubated at room temperature on a plate shaker at 600 rpm/25 min. Firefly luciferase signal was measured on a Tecan Safire2. After measurement, 20 ul of Dual Glo® Stop Glo® Reagent was added to each well. Plate was centrifuged at 1000 rpm/2 min and incubated at room temperature on a plate shaker at 600 rpm/25 min. Renilla luciferase signal was measured on Tecan Safire 2. IC50 values for test compounds were calculated from the normalized luciferase signal data using GraphPad Prism software.

T1 sequence (P51449 269-508 limits assumed): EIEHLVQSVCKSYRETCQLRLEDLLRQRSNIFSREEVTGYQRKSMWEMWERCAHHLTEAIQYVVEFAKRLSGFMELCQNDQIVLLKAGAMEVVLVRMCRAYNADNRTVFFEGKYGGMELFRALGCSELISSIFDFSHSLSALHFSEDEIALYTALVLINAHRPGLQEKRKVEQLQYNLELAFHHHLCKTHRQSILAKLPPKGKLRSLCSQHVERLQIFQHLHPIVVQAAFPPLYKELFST
T1 sequence (P04386 1-147 partner limits assumed): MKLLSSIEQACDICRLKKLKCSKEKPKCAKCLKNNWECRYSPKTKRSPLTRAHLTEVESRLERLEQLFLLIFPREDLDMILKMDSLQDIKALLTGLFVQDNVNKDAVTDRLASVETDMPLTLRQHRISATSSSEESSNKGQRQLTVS

Molecule | IC50 [nM]
O=C(c1c(Cl)cccc1C(F)(F)F)c1cc(C2=CCC(C(=O)O)CC2)c2ccccn12 (stereo not drawn) [Example A-65, 4-[3-[2-chloro-6-(trifluoromethyl)benzoyl]indolizin-1-yl]cyclohex-3-ene-1-carboxylic acid] | < 500
COC(=O)c1ccc(-c2cc(C(=O)c3c(C)cccc3Cl)n3ccccc23)c(F)c1 [Example A-13, methyl 4-[3-(2-chloro-6-methyl-benzoyl)indolizin-1-yl]-3-fluoro-benzoate] | < 500
O=C(O)c1ccc(-c2cc(C(=O)c3c(Cl)cccc3C(F)(F)F)n3ccccc23)cc1 [Example A-2, 4-[3-[2-chloro-6-(trifluoromethyl)benzoyl]indolizin-1-yl]benzoic acid] | < 500
CCOC(=O)c1ccc(-c2c(F)c(C(=O)c3c(Cl)ccc(F)c3Cl)n3ccccc23)cc1 [Example B-5, ethyl 4-[3-(2,6-dichloro-3-fluoro-benzoyl)-2-fluoro-indolizin-1-yl]benzoate] | < 500
CCOC(=O)c1ccc(-c2cc(C(=O)c3c(Cl)cccc3Cl)n3cccc(F)c23)cc1 [Example A-21, ethyl 4-[3-(2,6-dichlorobenzoyl)-8-fluoro-indolizin-1-yl]benzoate] | < 500
O=C(O)c1ccc(-c2cc(C(=O)c3c(Cl)cccc3Br)n3ccccc23)cc1 [Example A-50, 4-[3-(2-bromo-6-chloro-benzoyl)indolizin-1-yl]benzoic acid] | < 5000
(2,6-dichlorophenyl)-[1-(4-methylsulfonylphenyl)indolizin-3-yl]methanone [Example A-20] | > 5000
ethyl 4-[3-(2-chloro-6-fluoro-benzoyl)indolizin-1-yl]-3-fluoro-benzoate [Example A-25] | < 500
4-[3-(2,6-dibromobenzoyl)indolizin-1-yl]benzoic acid [Example A-53] | < 5000
CCOC(=O)c1ccc(-c2cc(C(=O)c3c(F)cccc3F)n3cccc(F)c23)cc1 [Example A-45, ethyl 4-[3-(2,6-difluorobenzoyl)-8-fluoro-indolizin-1-yl]benzoate] | < 500
4-[3-(2,6-dichlorophenoxy)indolizin-1-yl]benzoic acid [Example E-3] | > 5000
O=C(O)c1ccc(-c2cc(C(=O)c3c(F)ccc(F)c3F)n3ccccc23)c(F)c1 [Example A-44, 3-fluoro-4-[3-(2,3,6-trifluorobenzoyl)indolizin-1-yl]benzoic acid] | < 500
O=C(O)c1ccc(-c2cc(C(=O)c3c(Cl)cccc3Cl)n3cccc(C(F)(F)F)c23)cc1 [Example A-61, 4-[3-(2,6-dichlorobenzoyl)-8-(trifluoromethyl)indolizin-1-yl]benzoic acid] | < 500
COC(=O)c1ccc(-c2cc(C(=O)c3c(F)cccc3F)n3ccccc23)c(F)c1 [Example A-5, methyl 4-[3-(2,6-difluorobenzoyl)indolizin-1-yl]-3-fluoro-benzoate] | < 500
CCOC(=O)c1ccc(-c2cc(C(=O)c3c(Cl)cccc3C3CC3)n3ccccc23)cc1 [Example A-31, ethyl 4-[3-(2-chloro-6-cyclopropyl-benzoyl)indolizin-1-yl]benzoate] | < 500
O=C(O)c1ccc(-c2cc(C(=O)c3c(Cl)cccc3C3CC3)n3ccccc23)c(F)c1 [Example A-29, 4-[3-(2-chloro-6-cyclopropyl-benzoyl)indolizin-1-yl]-3-fluoro-benzoic acid] | < 500

Molecule | IC50 [nM]
O=C(O)c1ccc(-c2cc(C(=O)c3c(Cl)cccc3C(F)(F)F)n3cccc(Cl)c23)cc1 [Example A-58, 4-[8-chloro-3-[2-chloro-6-(trifluoromethyl)benzoyl]indolizin-1-yl]benzoic acid] | < 500
4-[3-(2,6-dichlorobenzoyl)-6-(methylcarbamoyl)indolizin-1-yl]benzoic acid [Example D-9] | < 5000
O=C(O)c1ccc(-c2c(F)c(C(=O)c3c(Cl)cccc3Cl)n3ccccc23)c(F)c1 [Example B-4, 4-[3-(2,6-dichlorobenzoyl)-2-fluoro-indolizin-1-yl]-3-fluoro-benzoic acid] | < 500
O=C(O)c1ccc(-c2cc(C(=O)c3c(Cl)ccc(F)c3Cl)n3ccccc23)cc1 [Example A-19, 4-[3-(2,6-dichloro-3-fluoro-benzoyl)indolizin-1-yl]benzoic acid] | < 500
4-[3-[2-chloro-6-(trifluoromethyl)benzoyl]-6-(pyrrolidine-1-carbonyl)indolizin-1-yl]benzoic acid [Example D-12] | < 500
Cc1c(-c2ccc(C(=O)O)cc2)c2ccccn2c1C(=O)c1c(Cl)cccc1Cl [Example C-4, 4-[3-(2,6-dichlorobenzoyl)-2-methyl-indolizin-1-yl]benzoic acid] | < 500
O=C(O)c1ccc(-c2cc(C(=O)c3c(Cl)ccc(F)c3Cl)n3cccc(F)c23)cc1 [Example A-43, 4-[3-(2,6-dichloro-3-fluoro-benzoyl)-8-fluoro-indolizin-1-yl]benzoic acid] | < 500
CCOC(=O)c1ccc(-c2c(C)c(C(=O)c3c(Cl)cccc3Cl)n3ccccc23)c(F)c1 [Example C-1, ethyl 4-[3-(2,6-dichlorobenzoyl)-2-methyl-indolizin-1-yl]-3-fluoro-benzoate] | < 500
CCOC(=O)c1ccc(-c2cc(C(=O)c3c(Cl)cccc3C(F)(F)F)n3ccccc23)cc1 [Example A-1, Ethyl 4-[3-[2-chloro-6-(trifluoromethyl)benzoyl]indolizin-1-yl]benzoate] | < 500
4-[3-(2-chloro-6-fluoro-benzoyl)indolizin-1-yl]benzoic acid [Example A-28] | < 500
CCOC(=O)c1ccc(-c2c(F)c(C(=O)c3c(Cl)cccc3Cl)n3ccccc23)cc1 [Example B-1, Ethyl 4-[3-(2,6-dichlorobenzoyl)-2-fluoro-indolizin-1-yl]benzoate] | < 500
CCOC(=O)c1ccc(-c2c(C)c(C(=O)c3c(Cl)cccc3Cl)n3ccccc23)cc1 [Example C-3, ethyl 4-[3-(2,6-dichlorobenzoyl)-2-methyl-indolizin-1-yl]benzoate] | < 500
O=C(O)c1ccc(-c2cc(C(=O)c3c(Cl)cccc3Cl)n3cccc(F)c23)cc1 [Example A-23, 4-[3-(2,6-dichlorobenzoyl)-8-fluoro-indolizin-1-yl]benzoic acid] | < 500
O=C(O)c1ccc(-c2cc(C(=O)c3c(Cl)cccc3Cl)n3cc(F)ccc23)cc1 [Example A-26, 4-[3-(2,6-dichlorobenzoyl)-6-fluoro-indolizin-1-yl]benzoic acid] | < 500
4-[3-(2-chloro-6-methyl-benzoyl)-5,6,7,8-tetrahydroindolizin-1-yl]benzoic acid [Example H-5] | < 500

Now from value to molecule:

IC50 [nM] | Molecule
< 500 | O=C(O)c1ccc(-c2nc(C(=O)c3c(Cl)ccc(F)c3Cl)n3ccccc23)cc1 [Example I-1, Sodium 4-[3-(2,6-dichloro-3-fluoro-benzoyl)imidazo[1,5-a]pyridin-1-yl]benzoate]
< 500 | O=C(O)c1ccc(-c2cc(C(=O)c3c(Cl)cccc3C(F)(F)F)n3cc(C(=O)N4CCC4)ccc23)cc1 [Example D-11, 4-[6-(azetidine-1-carbonyl)-3-[2-chloro-6-(trifluoromethyl)benzoyl]indolizin-1-yl]benzoic acid]
< 500 | O=C(O)c1ccc(-c2cc(C(=O)c3c(Cl)cccc3Cl)n3cc(C(=O)N4CCC4)ccc23)cc1 [Example D-6, 4-[6-(azetidine-1-carbonyl)-3-(2,6-dichlorobenzoyl)indolizin-1-yl]benzoic acid]
< 500 | COC(=O)c1ccc(-c2cc(Oc3c(Cl)cccc3Cl)n3ccccc23)c(F)c1 [Example E-1, methyl 4-[3-(2,6-dichlorophenoxy)indolizin-1-yl]-3-fluoro-benzoate]
< 1000 | O=C(O)c1ccc(-c2cc(C(=O)c3c(Cl)cccc3Cl)n3cc(C(=O)N4CCCCC4)ccc23)cc1 [Example D-4, 4-[3-(2,6-dichlorobenzoyl)-6-(piperidine-1-carbonyl)indolizin-1-yl]benzoic acid]
